Experimental data published in patent publication US20240158393A1, “PYRIDONE COMPOUNDS AND METHODS OF USE” (Exelixis, Inc., priority 2021, published 2024).

How the values were obtained:
Human Axl = molecular target: T1, Human Axl (Homo sapiens, UniProt P30530); assay: Human AXL kinase assay (33P radiometric / HTRF KinEase); assay type: biochemical; details: protocols of Examples A-1 and/or A-2
T1 construct: Human AXL (residues 464-885)
T1 sequence (P30530 1-894 Q764R): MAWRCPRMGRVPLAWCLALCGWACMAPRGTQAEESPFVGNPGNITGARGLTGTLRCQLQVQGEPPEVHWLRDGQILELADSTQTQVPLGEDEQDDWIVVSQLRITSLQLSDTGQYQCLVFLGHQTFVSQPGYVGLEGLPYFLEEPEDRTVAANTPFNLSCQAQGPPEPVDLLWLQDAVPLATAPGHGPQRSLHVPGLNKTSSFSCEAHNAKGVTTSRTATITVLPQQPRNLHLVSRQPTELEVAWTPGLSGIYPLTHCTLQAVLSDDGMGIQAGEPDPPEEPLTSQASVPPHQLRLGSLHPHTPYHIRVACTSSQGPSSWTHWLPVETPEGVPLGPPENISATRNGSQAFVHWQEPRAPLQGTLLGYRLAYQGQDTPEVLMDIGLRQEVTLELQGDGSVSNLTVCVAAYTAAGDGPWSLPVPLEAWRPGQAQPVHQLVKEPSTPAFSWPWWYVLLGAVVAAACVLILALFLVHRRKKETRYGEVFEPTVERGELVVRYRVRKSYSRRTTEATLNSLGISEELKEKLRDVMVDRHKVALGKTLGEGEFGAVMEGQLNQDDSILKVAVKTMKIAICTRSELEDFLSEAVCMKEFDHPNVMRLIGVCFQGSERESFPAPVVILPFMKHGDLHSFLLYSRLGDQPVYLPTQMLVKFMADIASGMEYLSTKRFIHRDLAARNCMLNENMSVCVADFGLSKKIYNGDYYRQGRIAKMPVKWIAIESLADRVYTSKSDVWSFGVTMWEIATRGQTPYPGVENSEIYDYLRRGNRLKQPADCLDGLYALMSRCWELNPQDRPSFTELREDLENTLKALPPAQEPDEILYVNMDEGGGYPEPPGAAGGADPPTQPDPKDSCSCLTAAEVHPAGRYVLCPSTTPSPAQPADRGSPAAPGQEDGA

Human KDR = molecular target: T2, Human KDR (Homo sapiens, UniProt P35968); assay: Human KDR kinase assay (33P radiometric / HTRF KinEase); assay type: biochemical; details: protocols of Examples B-1 and/or B-2
T2 construct: Human KDR (residues K790-V1356, 55 nM); purchased Eurofins Pharma Discovery Services UK Limited (KinaseProfiler, B-1) and/or CarnaBio (B-2)
How it was run: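 Radiometric: KDR K790-V1356 (55 nM), MOPS pH 7.0, myelin basic protein, 10 μM [γ-33P]ATP, 40 min at room temperature, filter-bound 33P counted; nine half-log doses, top 1 μM. HTRF: KDR 790-1356, 1 μM biotinylated peptide, ATP at Km (4.0 μM), 40 min, 10 doses. IC50 from logistic fits.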

T2 sequence (P35968 790-1356): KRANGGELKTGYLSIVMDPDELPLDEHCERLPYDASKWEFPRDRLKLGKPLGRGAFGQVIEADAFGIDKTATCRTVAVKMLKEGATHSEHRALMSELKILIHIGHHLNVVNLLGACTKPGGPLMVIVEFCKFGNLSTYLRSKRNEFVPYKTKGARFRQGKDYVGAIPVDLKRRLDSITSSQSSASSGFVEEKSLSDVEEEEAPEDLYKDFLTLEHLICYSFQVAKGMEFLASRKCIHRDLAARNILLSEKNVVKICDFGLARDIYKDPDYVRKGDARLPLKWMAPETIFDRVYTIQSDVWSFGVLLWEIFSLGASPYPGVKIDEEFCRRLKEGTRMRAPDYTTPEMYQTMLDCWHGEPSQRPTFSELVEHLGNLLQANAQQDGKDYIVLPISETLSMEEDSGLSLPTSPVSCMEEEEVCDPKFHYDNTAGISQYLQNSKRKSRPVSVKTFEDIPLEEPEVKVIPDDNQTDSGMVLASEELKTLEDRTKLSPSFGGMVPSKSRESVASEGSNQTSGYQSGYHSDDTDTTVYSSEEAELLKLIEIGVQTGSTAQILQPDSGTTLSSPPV

SMILES	IC50 (Human Axl) [nM]	IC50 (Human KDR) [nM]
COc1cc2nccc(Oc3ccc(NC(=O)c4cnc(C)c(/C=C/CC(C)C)c4O)cc3F)c2nc1OC [Compound 28, N-[4-[(6,7-Dimethoxy-1,5-naphthyridin-4-yl)oxy]-3-fluorophenyl]-4-hydroxy-6-methyl-5-[(E)-4-methylpent-1-enyl]pyridine-3-carboxamide]	≤ 100	≤ 100
COc1cc2nccc(Oc3ccc(NC(=O)c4cnc(C)c(/C=C/CC(C)C)c4O)cc3F)c2cc1OC [Compound 29, N-[4-(6,7-Dimethoxyquinolin-4-yl)oxy-3-fluorophenyl]-4-hydroxy-6-methyl-5-[(E)-4-methylpent-1-enyl]pyridine-3-carboxamide]	≤ 100	≤ 100
COc1cc2nccc(Oc3ccc(NC(=O)c4cnc(C)c(/C=C/C(C)(C)C)c4O)cc3F)c2cc1OC [Compound 30, N-[4-(6,7-Dimethoxyquinolin-4-yl)oxy-3-fluorophenyl]-5-[(E)-3,3-dimethylbut-1-enyl]-4-hydroxy-6-methylpyridine-3-carboxamide]	≤ 100	≤ 100
COc1cc2nccc(Oc3ccc(NC(=O)c4c(C)nc(C)c(C(C)C)c4O)cc3F)c2nc1OC [Compound 31, N-[4-[(6,7-Dimethoxy-1,5-naphthyridin-4-yl)oxy]-3-fluorophenyl]-4-hydroxy-2,6-dimethyl-5-propan-2-ylpyridine-3-carboxamide]	≤ 100	≤ 100
COc1cnc2c(Oc3ccc(NC(=O)c4c(C)nc(C)c(C(C)C)c4O)cc3F)ccnc2c1 [Compound 32, N-[3-Fluoro-4-[(7-methoxy-1,5-naphthyridin-4-yl)oxy]phenyl]-4-hydroxy-2,6-dimethyl-5-propan-2-ylpyridine-3-carboxamide]	≤ 100	≤ 100
COCCOc1cc2nccc(Oc3ccc(NC(=O)c4cnc(C)c(C5=CCCC5)c4O)cc3F)c2nc1OC [Compound 33, 5-(Cyclopenten-1-yl)-N-[3-fluoro-4-[[6-methoxy-7-(2-methoxyethoxy)-1,5-naphthyridin-4-yl]oxy]phenyl]-4-hydroxy-6-methylpyridine-3-carboxamide]	≤ 100	≤ 100
COCCOc1cc2nccc(Oc3ccc(NC(=O)c4cnc(C)c(C5=CCCCC5)c4O)cc3F)c2nc1OC [Compound 34, 5-(Cyclohexen-1-yl)-N-[3-fluoro-4-[[6-methoxy-7-(2-methoxyethoxy)-1,5-naphthyridin-4-yl]oxy]phenyl]-4-hydroxy-6-methylpyridine-3-carboxamide]	≤ 100	≤ 100
COCCOc1cc2nccc(Oc3ccc(NC(=O)c4cnc(C)c(C5=CCOCC5)c4O)cc3F)c2nc1OC [Compound 35, 5-(3,6-Dihydro-2H-pyran-4-yl)-N-[3-fluoro-4-[[6-methoxy-7-(2-methoxyethoxy)-1,5-naphthyridin-4-yl]oxy]phenyl]-4-hydroxy-6-methylpyridine-3-carboxamide]	≤ 100	≤ 100
COCCOc1cc2nccc(Oc3ccc(NC(=O)c4cnc(C)c(/C=C/C5CCCC5)c4O)cc3F)c2nc1OC [Compound 36, 5-[(E)-2-Cyclopentylethenyl]-N-[3-fluoro-4-[[6-methoxy-7-(2-methoxyethoxy)-1,5-naphthyridin-4-yl]oxy]phenyl]-4-hydroxy-6-methylpyridine-3-carboxamide]	≤ 100	≤ 100
COCCOc1cc2nccc(Oc3ccc(NC(=O)c4cnc(C)c(/C=C/C5CC5)c4O)cc3F)c2nc1OC [Compound 37, 5-[(E)-2-Cyclopropylethenyl]-N-[3-fluoro-4-[[6-methoxy-7-(2-methoxyethoxy)-1,5-naphthyridin-4-yl]oxy]phenyl]-4-hydroxy-6-methylpyridine-3-carboxamide]	≤ 100	≤ 100
COc1cc2nccc(Oc3ccc(NC(=O)c4c(C)ccn(C(C)C)c4=O)cc3F)c2nc1OC [Compound 38, N-[4-[(6,7-Dimethoxy-1,5-naphthyridin-4-yl)oxy]-3-fluorophenyl]-4-methyl-2-oxo-1-propan-2-ylpyridine-3-carboxamide]	100 to 300	100 to 300
COc1cc2nccc(Oc3ccc(NC(=O)c4c(C)ccn(C(C)C)c4=O)cc3)c2nc1OC [Compound 39, N-[4-[(6,7-Dimethoxy-1,5-naphthyridin-4-yl)oxy]phenyl]-4-methyl-2-oxo-1-propan-2-ylpyridine-3-carboxamide]	> 300	> 300
COCCOc1cc2nccc(Oc3ccc(NC(=O)c4cnc(C)c(/C=C/C(C)(C)C)c4O)cc3F)c2nc1OC [Compound 40, 5-[(E)-3,3-Dimethylbut-1-enyl]-N-[3-fluoro-4-[[6-methoxy-7-(2-methoxyethoxy)-1,5-naphthyridin-4-yl]oxy]phenyl]-4-hydroxy-6-methylpyridine-3-carboxamide]	≤ 100	≤ 100
COCCOc1cc2nccc(Oc3ccc(NC(=O)c4c(C)nc(C)c(C5=CCCC5)c4O)cc3F)c2nc1OC [Compound 41, 5-(Cyclopenten-1-yl)-N-[3-fluoro-4-[[6-methoxy-7-(2-methoxyethoxy)-1,5-naphthyridin-4-yl]oxy]phenyl]-4-hydroxy-2,6-dimethylpyridine-3-carboxamide]	≤ 100	≤ 100
COCCOc1cc2nccc(Oc3ccc(NC(=O)c4c(C)n(C)c(C)c(C5=CCCC5)c4=O)cc3F)c2nc1OC [Compound 42, 5-(Cyclopenten-1-yl)-N-[3-fluoro-4-[[6-methoxy-7-(2-methoxyethoxy)-1,5-naphthyridin-4-yl]oxy]phenyl]-1,2,6-trimethyl-4-oxopyridine-3-carboxamide]	≤ 100	≤ 100
COCCOc1cc2nccc(Oc3ccc(NC(=O)c4c(C)nc(C)c(C5=CCOCC5)c4O)cc3F)c2nc1OC [Compound 43, 5-(3,6-Dihydro-2H-pyran-4-yl)-N-[3-fluoro-4-[[6-methoxy-7-(2-methoxyethoxy)-1,5-naphthyridin-4-yl]oxy]phenyl]-4-hydroxy-2,6-dimethylpyridine-3-carboxamide]	≤ 100	≤ 100
COCCOc1cc2nccc(Oc3ccc(NC(=O)c4c(O)c(C5=CCOCC5)c(C)[n+](C)c4C)cc3F)c2nc1OC [Compound 44, 5-(3,6-Dihydro-2H-pyran-4-yl)-N-[3-fluoro-4-[[6-methoxy-7-(2-methoxyethoxy)-1,5-naphthyridin-4-yl]oxy]phenyl]-1,2,6-trimethyl-4-oxopyridine-3-carboxamide]	≤ 100	100 to 300
COCCOc1cc2nccc(Oc3ccc(NC(=O)c4c(C)n(C)c(C)c(/C=C/C(C)(C)C)c4=O)cc3F)c2nc1OC [Compound 45, 5-[(E)-3,3-Dimethylbut-1-enyl]-N-[3-fluoro-4-[[6-methoxy-7-(2-methoxyethoxy)-1,5-naphthyridin-4-yl]oxy]phenyl]-1,2,6-trimethyl-4-oxopyridine-3-carboxamide]	≤ 100	≤ 100
COc1cc2nccc(Oc3ccc(NC(=O)c4c(C)n(C)c(C)c(C5CC5)c4=O)cc3F)c2nc1OC [Compound 46, 5-Cyclopropyl-N-[4-[(6,7-dimethoxy-1,5-naphthyridin-4-yl)oxy]-3-fluorophenyl]-1,2,6-trimethyl-4-oxopyridine-3-carboxamide]	100 to 300	> 300
